The values that follow come from patent US6660721B2, “Anti-HCV nucleoside derivatives” (Hoffmann-la Roche Inc., priority 2001, dated 2003).

As a reminder, the pIC50 is the IC50 on a negative log10 scale, so that one unit is a factor of ten.

pIC50: −log10 of the molar value. Read-outs that look alike come from different tables or passages of the source.

The assay concerns HCV replicon RNA in human hepatoma Huh7 cells (cell line 2209-23). Put plainly: HCV Replicon assay (Renilla luciferase reporter, 2209-23 cells). The format is cell-based, Hepatitis C virus. The conditions noted are these: for pIC50: Hepatitis C virus, Huh-7, 72 h, read-out: IC50 (HCV Replicon assay).

`Nc1ccn([C@@H]2O[C@H](CO)[C@@H](O)[C@H]2F)c(=O)n1` [2′-Deoxy-2′-fluorocytidine]: the pIC50 (Renilla luciferase HCV replicon cells 2209-23, three days incubation) was 6.13.
Consider `Nc1nc2c(ncn2[C@@H]2O[C@H](CO)[C@@H](O)[C@H]2F)c(=O)[nH]1` [2′-Deoxy-2′-fluoroguanosine], for which, under “@ 20 μM, Renilla luciferase HCV replicon cells 2209-23”, the “% reduction of replicon level at fixed concentration” value turned out to be 62% @ 20.
`Nc1nc(N)c2ncn([C@@H]3O[C@H](CO)[C@@H](O)[C@H]3F)c2n1` [9-(2-Deoxy-2-fluoro-β-D-ribofuranosyl)-2,6-diaminopurine]: the negative logarithm of the IC50 (pIC50) was 5.00.
